# Experimental data published in patent US6369059B1, “Tetracyclic derivatives, process of preparation and use” (ICOS Corporation, priority 1994, dated 2002).
row,Structure (SMILES),melting point [°C]
1,"COc1cccc([C@H]2c3[nH]c4ccccc4c3C[C@@H]3C(=O)N(C)CC(=O)N23)c1 (relative stereo) [Example 33, Cis-2,3,6,7,12,12a-Hexahydro-6-(3-methoxyphenyl)-2-methyl-pyrazino[2′,1′:6,1]pyrido[3,4-b]indole-1,4-dione]",267 to 269
2,"O=C1[C@H]2Cc3c([nH]c4ccccc34)[C@H](c3ccc4c(c3)OCO4)N2C(=O)CN1C1CC1 (relative stereo) [Example 17, Cis-2,3,6,7,12,12a-Hexahydro-2cyclopropyl-6-(3,4-methylenedioxyphenyl)-pyrazino[2′,1′:6,1]pyrido[3,4-b]indole-1,4-dione]",290 to 292
3,"CCCCN1CC(=O)N2[C@@H](c3ccc(OC)cc3)c3[nH]c4ccccc4c3C[C@H]2C1=O (relative stereo) [Example 30, Trans-2,3,6,7,12,12a-Hexahydro-2-butyl-6-(4-methoxyphenyl)-pyrazino[2′,1′:6,1]pyrido[3,4-b]indole-1,4-dione]",212 to 214
4,"CN1CC(=O)N2[C@@H](c3ccc4c(c3)OCCO4)c3[nH]c4ccccc4c3C[C@@H]2C1=O (relative stereo) [Example 38, Cis-2,3,6,7,12,12a-Hexahydro-6-(3,4-ethylenedioxyphenyl)-2-methyl-pyrazino[2′,1′:6,1]pyrido[3,4-b]indole-1,4-dione]",303 to 305
5,"O=C1[C@H]2Cc3c([nH]c4ccccc34)[C@H](c3ccc4c(c3)OCO4)N2C(=O)CN1Cc1ccc(F)cc1 (relative stereo) [Example 24, Cis-2,3,6,7,12,12a-Hexahydro-2-(4-fluorobenzyl)6-(3,4-methylenedioxyphenyl)-pyrazino[2′,1′:6,1]pyrido[3,4-b]indole-1,4-dione]",281 to 283
6,"CN1CC(=O)N2[C@@H](c3ccc4ccccc4c3)c3[nH]c4ccccc4c3C[C@@H]2C1=O (relative stereo) [Example 50, Cis-2,3,6,7,12,12a-Hexahydro-2-methyl-6-(2-naphthyl)-pyrazino[2′,1′:6,1]pyrido[3,4-b]indole-1,4-dione]",> 260
7,"Cc1ccc([C@H]2c3[nH]c4ccccc4c3C[C@@H]3C(=O)N(C)CC(=O)N23)cc1 (relative stereo) [Example 61, Cis-2,3,6,7,12,12a-Hexahydro-2-methyl-6-(4-methylphenyl)-pyrazino[2′,1′:6,1]pyrido[3,4-b]indole-1,4-dione]",> 260
8,"O=C1[C@H]2Cc3c([nH]c4ccccc34)[C@H](c3ccc(Br)s3)N2C(=O)CN1CC1CC1 (relative stereo) [Example 54, Cis-2,3,6,7,12,12a-Hexahydro-6-(5-bromo-2-thienyl)-2-cyclopropylmethyl-pyrazino[2′,1′:6,1]pyrido[3,4-b]indole-1,4-dione]",190
9,"CCCCN1CC(=O)N2[C@@H](c3cccs3)c3[nH]c4ccccc4c3C[C@@H]2C1=O (relative stereo) [Example 51, Cis-2,3,6,7,12,12a-Hexahydro-2-butyl-6-(2-thienyl)-pyrazino[2′,1′:6,1]pyrido[3,4-b]indole-1,4-dione]",226
10,"CCCCN1CC(=O)N2[C@@H](c3ccc(OC)cc3)c3[nH]c4ccccc4c3C[C@@H]2C1=O (relative stereo) [Example 29, Cis-2,3,6,7,12,12a-Hexahydro-2-butyl-6-(4-methoxyphenyl)-pyrazino[2′,1′:6,1]pyrido[3,4-b]indole-1,4-dione]",157
11,"CN1CC(=O)N2[C@@H](c3ccsc3)c3[nH]c4ccccc4c3C[C@@H]2C1=O (relative stereo) [Example 57, Cis-2,3,6,7,12,12a-Hexahydro-2-methyl-6-(3-thienyl)-pyrazino[2′,1′:6,1]pyrido[3,4-b]indole-1,4-dione]",290 to 295
12,"CCOc1ccc([C@H]2c3[nH]c4ccccc4c3C[C@@H]3C(=O)N(C)CC(=O)N23)cc1 (relative stereo) [Example 34, Cis-2,3,6,7,12,12a-Hexahydro-6-(4-ethoxyphenyl)-2methyl-pyrazino[2′,1′:6,1]pyrido[3,4-b]indole-1,4-dione]",247 to 248
13,"CCN1CC(=O)N2[C@@H](c3ccc(OC)cc3)c3[nH]c4ccccc4c3C[C@@H]2C1=O (relative stereo) [Example 27, Cis-2,3,6,7,12,12a-Hexahydro-2-ethyl-6(4-methoxyphenyl)-pyrazino[2′,1′:6,1]pyrido[3,4-b]indole-1,4-dione]",245 to 255
14,"O=C1NCC(=O)N2[C@@H](c3ccc4c(c3)OCO4)c3[nH]c4ccccc4c3C[C@H]12 (relative stereo) [Example 4, Cis-2,3,6,7,12,12a-Hexahydro-6-(3,4-methylenedioxyphenyl)-pyrazino[2′,1′:6,1]pyrido[3,4-b]indole-1,4-dione]",283 to 285
15,"CCCCN1CC(=O)N2[C@@H](c3ccc4c(c3)OCO4)c3[nH]c4ccccc4c3C[C@@H]2C1=O (relative stereo) [Example 18, Cis-2,3,6,7,12,12a-Hexahydro-2-butyl-6-(3,4-methylenedioxyphenyl)-pyrazino[2′,1′:6,1]pyrido[3,4-b]indole-1,4-dione]",241 to 243
16,"COc1ccc([C@H]2c3[nH]c4ccccc4c3C[C@H]3C(=O)N(C)CC(=O)N23)cc1 (relative stereo) [Example 26, Trans-2,3,6,7,12,12a-Hexahydro-6-(4-methoxyphenyl)-2-methyl-pyrazino[2′,1′:6,1]pyrido[3,4-b]indole-1,4-dione]",225 to 228

# More lines, now with the values ahead:
row,melting point [°C],Structure (SMILES)
1,246,"CCCCN1CC(=O)N2[C@@H](c3ccc(NC(C)=O)cc3)c3[nH]c4ccccc4c3C[C@@H]2C1=O (relative stereo) [Example 99, Cis-2,3,6,7,12,12a-Hexahydro-6-(4-acetamidophenyl)-2-butyl-pyrazino[2′,1′:6,1]pyrido[3,4-b]indole-1,4-dione]"
2,209 to 210,"CCCCN1CC(=O)N2[C@H](c3ccc4c(c3)OCO4)c3[nH]c4ccccc4c3C[C@@H]2C1=O [Example 80, (6R,12aR)-2,3,6,7,12,12a-Hexahydro-2-butyl-6(3,4-methylenedioxyphenyl)-pyrazino[2′,1′:6,1]pyrido[3,4-b]indole-1,4-dione]"
3,307 to 309,"C[C@H]1C(=O)N2[C@H](c3ccc4c(c3)OCO4)c3[nH]c4ccccc4c3C[C@@H]2C(=O)N1C [Example 117, (3S,6R,12aR)-2,3,6,7,12,12a-Hexahydro-2,3-dimethyl-6-(3,4-methylenedioxyphenyl)-pyrazino[2′,1′:6,1]pyrido[3,4-b]indole-1,4-dione]"
4,218 to 219,"COc1ccc([C@@H]2c3[nH]c4ccccc4c3C[C@@H]3C(=O)N(CC4CC4)CC(=O)N23)cc1Cl [Example 87, (6R,12aR)-2,3,6,7,12,12a-Hexahydro-6-(3-chloro-4-methoxyphenyl)-2-cyclopropylmethyl-pyrazino[2′,1′:6,1]pyrido[3,4-b]indole-1,4-dione]"
5,262,"CN1CC(=O)N2[C@H](c3ccc4c(c3)CCC4)c3[nH]c4ccccc4c3C[C@@H]2C1=O [Example 93, (6R,12aR)-2,3,6,7,12,12a-Hexahydro-6-(5-indanyl)-2-methyl-pyrazino[2′,1′:6,1]pyrido[3,4-b]indole-1,4-dione]"
6,275,"Cc1ccc2[nH]c3c(c2c1)C[C@@H]1C(=O)N(C)CC(=O)N1[C@H]3c1ccc2c(c1)OCO2 (relative stereo) [Example 96, Cis-2,3,6,7,12,12a-Hexahydro-2,10-dimethyl-6-(3,4-methylenedioxyphenyl)-pyrazino[2′,1′:6,1]pyrido[3,4-b]indole-1,4-dione]"
7,194,"Cc1ccc([C@H]2c3[nH]c4ccccc4c3C[C@@H]3C(=O)N(CC4CC4)CC(=O)N23)cc1 (relative stereo) [Example 64, Cis-2,3,6,7,12,12a-Hexahydro-2-cyclopropylmethyl-6-(4-methylphenyl)-pyrazino[2′,1′:6,1]pyrido[3,4-b]indole-1,4-dione]"
8,160,"CCc1ccc([C@H]2c3[nH]c4ccccc4c3C[C@@H]3C(=O)N(CC4CC4)CC(=O)N23)cc1 (relative stereo) [Example 73, Cis-2,3,6,7,12,12a-Hexahydro-6-(4-ethylphenyl)-2-cyclopropylmethyl-pyrazino[2′,1′:6,1]pyrido[3,4-b]indole-1,4-dione]"
9,155,"CCCCN1CC(=O)N2[C@@H](c3ccc(C(F)(F)F)cc3)c3[nH]c4ccccc4c3C[C@@H]2C1=O (relative stereo) [Example 66, Cis-2,3,6,7,12,12a-Hexahydro-2-butyl-6-(4-trifluoromethylphenyl)-pyrazino[2′,1′:6,1]pyrido[3,4-b]indole-1,4-dione]"
10,174 to 180,"CN1CC(=O)N2[C@@H](c3ccc(OC(F)(F)F)cc3)c3[nH]c4ccccc4c3C[C@@H]2C1=O (relative stereo) [Example 67, Cis-2,3,6,7,12,12a-Hexahydro-2-methyl-6-(4-trifluoromethoxyphenyl)-pyrazino[2′,1′:6,1]pyrido[3,4-b]indole-1,4-dione]"
11,271,"C#CCN1CC(=O)N2[C@H](c3ccc4c(c3)OCO4)c3[nH]c4ccccc4c3C[C@@H]2C1=O [Example 102, (6R,12aR)-2,3,6,7,12,12a-Hexahydro-6-(3,4-methylenedioxyphenyl)-2-(2-propynyl)-pyrazino[2′,1′:6,1]pyrido[3,4-b]indole-1,4-dione]"
12,209,"O=C1[C@H]2Cc3c([nH]c4ccccc34)[C@@H](c3ccc4c(c3)OCO4)N2C(=O)CN1CC1CCCCC1 [Example 83, (6R,12aR)-2,3,6,7,12,12a-Hexahydro-6-(3,4-methylenedioxyphenyl)-2-cyclohexylmethyl-pyrazino[2′,1′:6,1]pyrido[3,4-b]indole-1,4-dione]"
13,285 to 288,"COc1ccc([C@@H]2c3[nH]c4ccccc4c3C[C@@H]3C(=O)N(C)CC(=O)N23)cc1 [Example 107, (6R,12aR)-2,3,6,7,12,12a-Hexahydro-6-(4-methoxyphenyl)-2-methyl-pyrazino[2′,1′:6,1]pyrido[3,4-b]indole-1,4-dione]"
14,170,"Cc1ccc([C@H]2c3[nH]c4ccccc4c3C[C@@H]3C(=O)N(C(C)C)CC(=O)N23)cc1 (relative stereo) [Example 62, Cis-2,3,6,7,12,12a-Hexahydro-2-isopropyl-6-(4-methylphenyl)-pyrazino[2′,1′:6,1]pyrido[3,4-b]indole-1,4-dione]"
